# Experimental data published in ChEMBL document CHEMBL1201862, “PubChem BioAssay data set” (2004).
#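 A five-concentration, 48-hour dose response in 96-well plates underlies each endpoint, interpolated linearly between surrounding concentrations. GI50 is the concentration that inhibits growth by half.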 Calls of active or inactive are those of the source. Rule as the data show it: active = GI50 up to about 1.1 µM and inactive = higher.
# Experiments:
# Assay in all cases: growth of human tumour cells (NCI), 48 h
# NCI/ADR-RES = test system: NCI/ADR-RES
# OVCAR-4 = test system: OVCAR-4
# KM12 = test system: KM12
# MCF7 = test system: MCF7
# NCI-H226 = test system: NCI-H226
# NCI-H23 = test system: NCI-H23
# RPMI-8226 = test system: RPMI-8226
# OVCAR-3 = test system: OVCAR-3
# COLO 205 = test system: COLO 205
# SF-268 = test system: SF-268
# BT-549 = test system: BT-549
# MDA-MB-231 = test system: MDA-MB-231
# SF-539 = test system: SF-539
# HCT-116 = test system: HCT-116
# SF-295 = test system: SF-295
# RXF 393 = test system: RXF 393
# IGROV-1 = test system: IGROV-1
# UO-31 = test system: UO-31
# HOP-62 = test system: HOP-62
# SK-OV-3 = test system: SK-OV-3
# HCT-15 = test system: HCT-15
# A498 = test system: A498
# CCRF-CEM = test system: CCRF-CEM
# NCI-H522 = test system: NCI-H522
# U-251 = test system: U-251
# OVCAR-8 = test system: OVCAR-8
# OVCAR-5 = test system: OVCAR-5
# SK-MEL-28 = test system: SK-MEL-28
# LOX IMVI = test system: LOX IMVI
# UACC-257 = test system: UACC-257
# Malme-3M = test system: Malme-3M
# TK-10 = test system: TK-10
# PC-3 = test system: PC-3
# MOLT-4 = test system: MOLT-4
# MDA-MB-435 = test system: MDA-MB-435
# SNB-19 = test system: SNB-19
# HT-29 = test system: HT-29
# NCI-H460 = test system: NCI-H460
# EKVX = test system: EKVX
# SN12C = test system: SN12C
# CAKI-1 = test system: CAKI-1
# UACC-62 = test system: UACC-62
# A549 = test system: A549
# SK-MEL-2 = test system: SK-MEL-2
# SW-620 = test system: SW-620
# T47D = test system: T47D
# SR = test system: SR
# HOP-92 = test system: HOP-92
# SK-MEL-5 = test system: SK-MEL-5
# HL-60 = test system: HL-60
# HCC 2998 = test system: HCC 2998
# 786-0 = test system: 786-0
# Hs-578T = test system: Hs-578T
# M14 = test system: M14
# DU-145 = test system: DU-145
# MDA-N = test system: MDA-N
# SNB-75 = test system: SNB-75
# ACHN = test system: ACHN
# K562 = test system: K562
structure (smiles),measurement,setting,value
COc1ccc(P2(=S)SP(=S)(c3ccc(Cl)cc3)S2)cc1 (configuration not stated),GI50,NCI/ADR-RES,> 100 µM (inactive)
same,GI50,OVCAR-4,> 100 µM (inactive)
same,GI50,KM12,> 100 µM (inactive)
same,GI50,MCF7,> 100 µM (inactive)
same,GI50,NCI-H226,> 100 µM (inactive)
same,GI50,NCI-H23,> 100 µM (inactive)
same,GI50,RPMI-8226,> 100 µM (inactive)
same,GI50,OVCAR-3,> 100 µM (inactive)
same,GI50,COLO 205,> 100 µM (inactive)
same,GI50,SF-268,> 100 µM (inactive)
same,GI50,BT-549,> 100 µM (inactive)
same,GI50,MDA-MB-231,> 100 µM (inactive)
same,GI50,SF-539,> 100 µM (inactive)
same,GI50,HCT-116,> 100 µM (inactive)
same,GI50,SF-295,> 100 µM (inactive)
same,GI50,RXF 393,> 100 µM (inactive)
same,GI50,IGROV-1,> 100 µM (inactive)
same,GI50,UO-31,> 100 µM (inactive)
same,GI50,HOP-62,> 100 µM (inactive)
same,GI50,SK-OV-3,> 100 µM (inactive)
same,GI50,HCT-15,> 100 µM
same,GI50,A498,> 100 µM (inactive)
same,GI50,CCRF-CEM,> 100 µM (inactive)
same,GI50,NCI-H522,> 100 µM (inactive)
same,GI50,U-251,> 100 µM (inactive)
same,GI50,OVCAR-8,> 100 µM (inactive)
same,GI50,OVCAR-5,> 100 µM (inactive)
same,GI50,SK-MEL-28,> 100 µM (inactive)
same,GI50,LOX IMVI,> 100 µM (inactive)
same,GI50,UACC-257,> 100 µM (inactive)
same,GI50,Malme-3M,> 100 µM (inactive)
same,GI50,TK-10,> 100 µM (inactive)
same,GI50,PC-3,> 100 µM (inactive)
same,GI50,MOLT-4,> 100 µM (inactive)
same,GI50,MDA-MB-435,> 100 µM (inactive)
same,GI50,SNB-19,> 100 µM (inactive)
same,GI50,HT-29,> 100 µM (inactive)
same,GI50,NCI-H460,> 100 µM (inactive)
same,GI50,EKVX,> 100 µM (inactive)
same,GI50,SN12C,> 100 µM (inactive)
same,GI50,CAKI-1,> 100 µM (inactive)
same,GI50,UACC-62,> 100 µM (inactive)
same,GI50,A549,> 100 µM (inactive)
same,GI50,SK-MEL-2,> 100 µM (inactive)
same,GI50,SW-620,> 100 µM (inactive)
same,GI50,T47D,> 100 µM (inactive)
same,GI50,SR,> 100 µM (inactive)
same,GI50,HOP-92,> 100 µM (inactive)
same,GI50,SK-MEL-5,> 100 µM (inactive)
same,GI50,HL-60,> 100 µM (inactive)
same,GI50,HCC 2998,> 100 µM (inactive)
same,GI50,786-0,> 100 µM (inactive)
same,GI50,Hs-578T,> 100 µM (inactive)
same,GI50,M14,> 100 µM (inactive)
same,GI50,DU-145,> 100 µM (inactive)
same,GI50,MDA-N,> 100 µM (inactive)
same,GI50,SNB-75,> 100 µM (inactive)
same,GI50,ACHN,> 100 µM (inactive)
CN1CN(c2ccccc2)C2(CCN(C(=O)OC(C)(C)C)CC2)C1=O,GI50,NCI/ADR-RES,> 100 µM (inactive)
same,GI50,OVCAR-4,> 100 µM (inactive)
same,GI50,KM12,> 100 µM (inactive)
same,GI50,MCF7,> 100 µM (inactive)
same,GI50,NCI-H226,> 100 µM (inactive)
same,GI50,NCI-H23,> 100 µM (inactive)
same,GI50,K562,75.3 µM (inactive)
same,GI50,RPMI-8226,98.2 µM (inactive)
same,GI50,OVCAR-3,> 100 µM (inactive)
same,GI50,COLO 205,> 100 µM (inactive)
same,GI50,SF-268,> 100 µM (inactive)
same,GI50,BT-549,> 100 µM (inactive)
same,GI50,MDA-MB-231,> 100 µM (inactive)
same,GI50,SF-539,> 100 µM (inactive)
same,GI50,HCT-116,> 100 µM (inactive)
same,GI50,SF-295,> 100 µM (inactive)
same,GI50,RXF 393,63.2 µM (inactive)
same,GI50,IGROV-1,> 100 µM (inactive)
same,GI50,UO-31,> 100 µM (inactive)
same,GI50,HOP-62,> 100 µM (inactive)
same,GI50,SK-OV-3,> 100 µM (inactive)
same,GI50,HCT-15,> 100 µM
same,GI50,A498,> 100 µM (inactive)
same,GI50,CCRF-CEM,> 100 µM (inactive)
same,GI50,NCI-H522,> 100 µM (inactive)
same,GI50,U-251,> 100 µM (inactive)
same,GI50,OVCAR-8,> 100 µM (inactive)
same,GI50,OVCAR-5,> 100 µM (inactive)
same,GI50,SK-MEL-28,> 100 µM (inactive)
same,GI50,LOX IMVI,> 100 µM (inactive)
same,GI50,UACC-257,> 100 µM (inactive)
same,GI50,Malme-3M,> 100 µM (inactive)
same,GI50,TK-10,> 100 µM (inactive)
same,GI50,PC-3,> 100 µM (inactive)
same,GI50,MOLT-4,> 100 µM (inactive)
same,GI50,MDA-MB-435,> 100 µM (inactive)
same,GI50,SNB-19,> 100 µM (inactive)
same,GI50,HT-29,> 100 µM (inactive)
same,GI50,NCI-H460,> 100 µM (inactive)
same,GI50,EKVX,> 100 µM (inactive)
same,GI50,SN12C,> 100 µM (inactive)
same,GI50,CAKI-1,> 100 µM (inactive)
same,GI50,UACC-62,> 100 µM (inactive)
same,GI50,A549,> 100 µM (inactive)
same,GI50,SK-MEL-2,> 100 µM (inactive)
same,GI50,SW-620,> 100 µM (inactive)
same,GI50,T47D,> 100 µM (inactive)
same,GI50,SR,> 100 µM (inactive)
same,GI50,HOP-92,32.4 µM (inactive)
same,GI50,SK-MEL-5,> 100 µM (inactive)
same,GI50,HL-60,> 100 µM (inactive)
same,GI50,HCC 2998,> 100 µM (inactive)
same,GI50,786-0,> 100 µM (inactive)
same,GI50,Hs-578T,57 µM (inactive)
same,GI50,M14,> 100 µM (inactive)
same,GI50,DU-145,> 100 µM (inactive)
same,GI50,MDA-N,> 100 µM (inactive)
same,GI50,SNB-75,> 100 µM (inactive)
same,GI50,ACHN,> 100 µM (inactive)
